Test results published in paper PMC10424187, “Structure-Guided Design and Synthesis of a Pyridazinone Series of Trypanosoma cruzi Proteasome Inhibitors” (Journal of Medicinal Chemistry, 2023).
In brackets after ≈: the same amount, converted by molar mass. Several values for one entry are separate records, joined by “and”; a condition that tells them apart may be missing. Equal values may be shown once.

Columns and labels:
T. cruzi [1] = experiment: T. cruzi in vitro washout assay; format: cell-based, Trypanosoma cruzi; details: 8 days of treatment, 50-fold EC50
Description: T. cruzi in vitro washout assay
This assay was run as previously reported:
Marco M.; Miles T.J.; Naylor C.; Osuna-Cabello M.; Paterson C.; Read K.D.; Pinto E.G.; Riley
J.; Scullion P.; Shishikura Y.; Simeons F.; Stojanovski L.; Svensen N.; Thomas J.; Wyatt P.G.;
disubstituted piperazines for the treatment of Chagas disease. […]

[2] = Mouse microsomal intrinsic clearance; format: in vitro ADME; details: mouse liver microsomes, scaling 52.5 mg microsomal protein/g liver
Protocol: Mouse microsomal intrinsic clearance.
This assay was conducted as previously described:
J.; Reid, I. H.; Hill, A. P.;
were prepared by adding a volume (5 µL) of the 10 mM solution to a volume (195 µL) of […]

[3] = Kinetic solubility by chemiluminescent nitrogen detection (CLND); format: physicochemical
[4] = In vivo blood exposure / pharmacokinetics in mice; design: species or system mouse
Protocol: Blood samples (10 μL) where taken
and 24 hours post dose samples for I.V. leg only) and mixed with two volumes of deionized water (20 μL). After suitable sample preparation, the concentration of test compound in the whole blood from treated mice was determined by UPLC-MS/MS using a Quattro Premier XE (Waters, USA). Pharmacokinetic parameters were derived from the mean blood concentration time curve using PK solutions software v 2.0 (Summit Research Services, USA).

Brain-blood ratio = format: in vivo; details: mouse
Brain tissue binding = format: in vitro ADME; details: read-out: brain tissue free fraction
T. cruzi [5] = experiment: Chronic mouse efficacy model of Chagas disease; format: in vivo, Balb/c mice; details: 5 days at 50 mg/kg bid
Protocol: All regulated procedures on living animals were carried out under the authority of a project license issued by the Home Office under the Animals (Scientific Procedures) Act 1986, as amended in 2012 (and in compliance with EU Directive EU/2010/63). Infected animals had access to food and water ad libitum and were housed under a 12-hour light/dark photoperiod.
Animals used in these experiments were female NMRI and Balb/c mice (Harlan, UK). […]
In vivo Mouse Efficacy Studies.
The T. cruzi chronic efficacy study was run in Balb/c mice as previously described:
M.D. Lewis, A. Fortes Francisco, M.C. Taylor, J.M. Kelly, A new experimental model for assessing drug efficacy against Trypanosoma cruzi infection based on highly sensitive in vivo imaging, J. Biomol. Screen 20 (1) (2015) 36–43

[6] = test system: intracellular T. cruzi X10/7 A1 amastigotes
P-gp (MDR1) = experiment: in vitro; details: dog, MDCK-MDR1
Protocol: MDR1-MDCK Permeability assay
Bi-directional transport was assessed in the presence and absence of Pgp inhibitor GF120918
(Elacridar). MDCK-MDR1 cells (Netherlands Cancer Institute) were maintained in culture
(DMEM, Gibco Cat: 61965-026 supplemented with 1% penicillin/streptomycin, 10% FCS)
until required. For experimentation, cells were seeded onto individual transwell ’Thincerts’
(Greiner, Cat 662610) at a density of 35,000 cells/well. Cells were grown at 37 °C, 5% CO2 for
3 days. On day 4, media was replaced with fresh media and incubated for 1 hour. Prior to
experimentation, cells were incubated with Dulbeccos PBS (Gibco, 14287-080) with/without
Pgp inhibitor, 2 µM GF120918, to ensure inactivation of the Pgp transporter. Cells were then
dosed apically and basolaterally (1 µM test compound, 10 µM Lucifer Yellow (1% DMSO)
with/without 2 µM GF120918) for 1 hour. 100 mL of solution from donor and receiver wells
was removed to a 96 well deepwell plate alongside 100 mL of dosing solution. 150 µL of
acetonitrile containing internal standard (e.g., 100 ng/mL Sulfadimethoxine) was then added
to all samples prior to analysis by LC-MS/MS. Amprenavir (positive control) were run […]
a Lucifer Yellow standard curve for fluorescence determination of Lucifer Yellow
concentrations. Papp (apparent permeability) values were calculated for each compound for […]
efflux ratios (ER) determined using the following equations: […]

FaSSIF solubility = details: fasted state simulated intestinal fluid
Protocol: undissolved material using a proprietary filter (Millipore Multiscreen HTS filter, 96-well
format). Samples were then drawn through the filter using vacuum. The filtrate from the above
was analysed for dissolved drug compound using a truncated UHPLC methodology. A Shimadzu Nexera X2 UHPLC system was used, with a reversed-phase column and a simple
formic acid gradient elution. The UHPLC parameters are shown below:
Mobile phase component A HPLC water plus 0.1% formic acid
Mobile phase component B HPLC acetonitrile plus 0.1% formic acid
Re-equilibration time: 0.6 min
Autosampler temperature: 25°C
Column: Hypersil Gold, C18 1.9 µm, 50 x 2.1 mm
A calibration solution was prepared in the following way: The same 10 mM solution used to
was then diluted with 50:50 acetonitrile:water to give a 50 µM solution. Aliquots (0.2, 2.0 and
5.0 µL) of this 50 µM solution were then injected onto the UHPLC system and the areas of the
resultant peaks integrated to produce a calibration line. Aliquots of the test sample filtrate (0.4
and 5.0 µL) were then injected onto the UHPLC system and the resultant peak areas for any
peaks corresponding to the test compound determined and quantified using the calibration line
(the injection volume that gave a peak area closest to the calibrated range was used for

Human 20S proteasome = Human 20S proteasome (Homo sapiens, UniProt P28074+P49721); experiment: human proteasome assay (chymotrypsin-like activity, Suc-LLVY-Rho-110-DPro)
Protocol: T. cruzi and human proteasome assays
(§1) The T. cruzi proteasome was partially purified as described in the above reference and Human
(§2) 20S proteasome was purchased from Boston Biochem (now R&D Systems, catalogue number
(§3) a Tecan Fluent to titrate over 11 points in Labcyte Echo-compatible Greiner Bio-One 384 well
(§4) polypropylene microplates. Subsequently, 100 nl of test compound titrations were transferred
(§5) to black Greiner Bio-One low volume 384 well microplates using a Labcyte Echo acoustic
(§6) 50 mM HEPES pH 7.5, 150 mM sodium chloride, 5% Glycerol, 1 mM dithiothreitol, 1 mM
(§7) CHAPS in deionised, filtered water (all chemicals purchased from Sigma Aldrich). Human 20S
(§8) These enzyme solutions were prepared immediately prior to assay initiation and stored at 4 °C
(§9) To monitor the Chymotrypsin-like activity of the T. cruzi and Human 20S proteasome proteins
(§10) a self-quenched, Rhodamine 110-labelled peptide with the sequence Suc-LLVY-Rho-110-
(§11) DPro was used (prepared by Cambridge Research Biochemicals. Suc is succinyl, while DPro
(§12) refers to ᴅ-proline). The peptide was initially prepared from solid as a 10 mM solution in 100%
(§13) DMSO and stored at -20 °C. Prior to use in the assay, an aliquot was thawed at room
(§14) to twofold Km. For use with the Human 20S proteasome, the Suc-LLVY-Rho-110-DPro
(§15) peptide was diluted in assay buffer to a concentration equivalent to twofold Km, which for this
(§16) enzyme was 2 μM. The peptide solutions were protected from light and stored at 4 °C before
(§17) A Multidrop Micro (Thermo Fisher), using a low volume dispense cassette, was used to add
(§18) the assay solutions to the test compounds in the low volume 384-well microplates. Prior to
(§19) addition of proteasome solution, 5 μl of assay buffer was added to one column (containing 100
(§20) nl, 100% DMSO) to act as no enzyme control to mimic full inhibition. Subsequently, 5 μl of
(§21) proteasome solution (either T. cruzi or Human 20S) was added to all wells on the test
(§22) microplate apart from the column containing 5 μl assay buffer. The microplate was then spun
(§23) using a suitable bench top centrifuge for 1 minute at 1000 rpm, before incubation at room
(§24) Following the initial incubation, 5 μl of substrate solution was then added to all wells on the
(§25) test microplate using a Multidrop Micro equipped with a discrete low volume dispense cassette.
(§26) The test microplates were then spun for 10 seconds at 1000 rpm before being rapidly moved to
(§27) a multi-mode microplate reader, capable of monitoring fluorescence intensity. The microplate
(§28) reader used for these studies was a Tecan M1000 Pro, equipped with quad monochromators.
(§29) 530 ± 5 nm. A series of fluorescence intensity measurements were taken every 30 seconds for
(§30) Subsequently, the fluorescence intensity measurements (relative fluorescence units, RFU) were
(§31) fit to a simple linear regression model (y = A + Bx, where y refers to the fluorescence intensity
(§32) and x refers to the time in seconds) to determine the initial rate of reaction. The initial rate for
(§33) every compound concentration tested was then fit a 4-parameter logistic model: y = (A + (B -
(§34) A)) / (1 + (x / C)D), where y refers to the assay response, x refers to the inhibitor concentration,
(§35) A and B are the range values (minimum and maximum, respectively), C is the IC50 value and
(§36) D is the slope. Potency values were then reported as pIC50, which is the negative log of the
(§37) IC50 (on a molar scale). Data analysis was automated and carried out using the ActivityBase

T. cruzi proteasome = T. cruzi proteasome (Trypanosoma cruzi, UniProt V5BU39+V5C017); experiment: T. cruzi proteasome assay (chymotrypsin-like activity, Suc-LLVY-Rho-110-DPro)
T. cruzi proteasome, sequence (V5BU39 entry or part of it): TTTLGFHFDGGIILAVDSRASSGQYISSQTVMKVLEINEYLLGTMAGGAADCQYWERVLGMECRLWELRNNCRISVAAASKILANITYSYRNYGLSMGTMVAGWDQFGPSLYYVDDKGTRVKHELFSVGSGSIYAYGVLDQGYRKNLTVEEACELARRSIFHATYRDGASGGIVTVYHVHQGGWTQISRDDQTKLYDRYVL
T. cruzi proteasome, sequence (V5C017 entry or part of it): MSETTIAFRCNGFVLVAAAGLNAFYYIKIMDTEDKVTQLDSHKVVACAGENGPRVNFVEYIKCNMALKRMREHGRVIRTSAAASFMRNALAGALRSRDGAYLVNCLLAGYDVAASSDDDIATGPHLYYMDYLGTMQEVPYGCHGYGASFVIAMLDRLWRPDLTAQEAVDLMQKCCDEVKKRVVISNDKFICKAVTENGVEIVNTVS
Protocol: T. cruzi and human proteasome assays
as §1, §2, §3, §4, §5, §6, §7, §8, §9, §10, §11, §12, §13, §14, §15, §16, §17, §18, §19, §20, §21, §22, §23, §24, §25, §26, §27, §28, §29, §30, §31, §32, §33, §34, §35, §36, §37

O=C(Nc1ccc(F)c(-c2cn3nc(N4CCOCC4)cnc3n2)c1)N1CCCC1 [Compound 4]
parasites relapsing on day (T. cruzi [1]): 34 days | Mouse CLi [2]: <0.5 mL/min/g | aqueous solubility [3]: 59 µM (≈ 24.3 µg/mL) | predicted brain exposure relative to T. cruzi EC99 ([4]; from blood exposure in chronic efficacy model, brain-blood ratio and brain free fraction): well below T. cruzi EC99 | time blood exposure above T. cruzi EC99 ([4]; mouse VL efficacy study, 50 mg/kg, also when corrected for plasma protein binding): > 8 h | Kp (Brain-blood ratio): 0.07 | fraction unbound (Brain tissue binding): 0.043 | effect on parasite levels (T. cruzi [5]): no visible effect on parasite levels | EC50 [6]: 0.1 µM and 0.126 µM and 0.0631 µM | Emax [6]: 95% and 90% and 93% and 98% and 99% and 96% and 92% and 100% | efflux ratio at 1 h, 1 µM (P-gp (MDR1)): 22 | FaSSIF solubility (FaSSIF solubility): 32 µM | IC50 (Human 20S proteasome; Hs Prot pIC50, individual replicate): 25.1 µM and 79.4 µM | Hs Prot Hill Slope (Human 20S proteasome; individual replicate): 1.7 and 0.9 and 1.3 | Hs Prot Max Response (%) (Human 20S proteasome; individual replicate): 35% and 21% and 42% and 24% and 10% and 50% and 28% and 48% and 38% and 29% and 47% and 41% and 54% and 44% and 52% and 49% and 40% | Hs Prot pIC50 (Human 20S proteasome; individual replicate): < 4 | Hs Prot pIC50 (Human 20S proteasome; mean of at least three independent replicates): <4 | IC50 (T. cruzi proteasome; Tc Prot pIC50, individual replicate): < 0.00158 µM and 0.00398 µM and 0.00794 µM and 0.00158 µM and 0.00251 µM and 0.0126 µM and 0.00501 µM and 0.01 µM | Tc Prot Hill Slope (T. cruzi proteasome; individual replicate): 1.0 and 0.8 and 0.7 and 0.9 and 0.75 and 1.1 and 0.95 | Tc Prot Max Response (%) (T. cruzi proteasome; individual replicate): 89% and 88% and 85% and 90% and 87% | Emax (T. cruzi proteasome; read-out: Tc Prot Max Response (%), individual replicate): 91%
